The NIST ThermoML archive (doi:10.1021/je700193w)

Key:
[1] = xn = mol fraction of the nth substance listed; settings: 101 kPa, Liquid
[2] = excess molar enthalpy (molar enthalpy of mixing); xn = mol fraction of the nth substance listed; settings: 101 kPa, Liquid

C=C1CCC2CC1C2(C)C (stereo not drawn) [β-pinene] + CC(C)CO
Settings	excess molar enthalpy, [2] [kcal/mol]	mass density, [1] [kg/m3]	speed of sound, [1] [m/s]
283.15 K, x1 = 0.0529	0.0158	–	–
283.15 K, x1 = 0.0566	–	815.77	1248.3
283.15 K, x1 = 0.1066	–	820.99	1257.1
283.15 K, x1 = 0.109	0.0306	–	–
283.15 K, x1 = 0.2011	–	829.88	1270.2
283.15 K, x1 = 0.2159	0.0605	–	–
283.15 K, x1 = 0.2931	–	837.56	1281.1
283.15 K, x1 = 0.3175	0.0851	–	–
283.15 K, x1 = 0.395	–	845.26	1292.2
283.15 K, x1 = 0.4299	0.108	–	–
283.15 K, x1 = 0.4928	–	851.82	1302
283.15 K, x1 = 0.5331	0.124	–	–
283.15 K, x1 = 0.6112	–	859.03	1313.9
283.15 K, x1 = 0.6229	0.13	–	–
283.15 K, x1 = 0.6906	–	863.45	1321.1
283.15 K, x1 = 0.7198	0.127	–	–
283.15 K, x1 = 0.7939	–	868.88	1330.7
283.15 K, x1 = 0.8249	0.111	–	–
283.15 K, x1 = 0.8682	–	872.61	1337.7
283.15 K, x1 = 0.9096	0.0841	–	–
283.15 K, x1 = 0.9393	–	876.05	1346.2
283.15 K, x1 = 0.9686	0.0672	–	–
298.15 K, x1 = 0.0481	–	803.39	1195.7
298.15 K, x1 = 0.0529	0.0217	–	–
298.15 K, x1 = 0.109	0.044	–	–
298.15 K, x1 = 0.1107	–	809.85	1203.9
298.15 K, x1 = 0.201	–	818.16	1214.9
298.15 K, x1 = 0.2159	0.0841	–	–
298.15 K, x1 = 0.2969	–	826.03	1225.1
298.15 K, x1 = 0.3175	0.115	–	–
298.15 K, x1 = 0.4002	–	833.57	1235.2
298.15 K, x1 = 0.4299	0.141	–	–
298.15 K, x1 = 0.4896	–	839.51	1243.9
298.15 K, x1 = 0.5331	0.156	–	–
298.15 K, x1 = 0.5856	–	845.33	1252.2
298.15 K, x1 = 0.6229	0.161	–	–
298.15 K, x1 = 0.6785	–	850.56	1260.4
298.15 K, x1 = 0.7198	0.152	–	–
298.15 K, x1 = 0.7841	–	856.21	1270.1
298.15 K, x1 = 0.8249	0.131	–	–
298.15 K, x1 = 0.8875	–	861.41	1280.4
298.15 K, x1 = 0.9096	0.101	–	–
298.15 K, x1 = 0.933	–	863.62	1285.2
298.15 K, x1 = 0.9686	0.086	–	–
303.15 K, x1 = 0.0505	–	799.78	1181.7
303.15 K, x1 = 0.0529	0.0275	–	–
303.15 K, x1 = 0.1044	–	805.23	1188.4
303.15 K, x1 = 0.109	0.0566	–	–
303.15 K, x1 = 0.2023	–	814.23	1200.2
303.15 K, x1 = 0.2159	0.116	–	–
303.15 K, x1 = 0.2999	–	822.12	1210.6
303.15 K, x1 = 0.3175	0.154	–	–
303.15 K, x1 = 0.3929	–	828.94	1219.2
303.15 K, x1 = 0.4299	0.185	–	–
303.15 K, x1 = 0.4877	–	835.22	1227.7
303.15 K, x1 = 0.5331	0.2	–	–
303.15 K, x1 = 0.6108	–	842.66	1238.3
303.15 K, x1 = 0.6229	0.204	–	–
303.15 K, x1 = 0.6829	–	846.72	1244.6
303.15 K, x1 = 0.7198	0.191	–	–
303.15 K, x1 = 0.7908	–	852.45	1254.4
303.15 K, x1 = 0.8249	0.162	–	–
303.15 K, x1 = 0.8846	–	857.17	1263.9
303.15 K, x1 = 0.9096	0.124	–	–
303.15 K, x1 = 0.9299	–	859.39	1268.9
303.15 K, x1 = 0.9686	0.103	–	–
313.15 K, x1 = 0.0401	–	790.45	1143.3
313.15 K, x1 = 0.0529	0.0356	–	–
313.15 K, x1 = 0.1042	–	796.91	1150.9
313.15 K, x1 = 0.109	0.0743	–	–
313.15 K, x1 = 0.2004	–	805.6	1160.9
313.15 K, x1 = 0.2159	0.141	–	–
313.15 K, x1 = 0.3012	–	813.68	1170.6
313.15 K, x1 = 0.3175	0.187	–	–
313.15 K, x1 = 0.3902	–	820.11	1178.2
313.15 K, x1 = 0.4299	0.221	–	–
313.15 K, x1 = 0.51	–	827.98	1187.7
313.15 K, x1 = 0.5331	0.239	–	–
313.15 K, x1 = 0.6202	–	834.55	1196.8
313.15 K, x1 = 0.6229	0.242	–	–
313.15 K, x1 = 0.6847	–	838.19	1202.2
313.15 K, x1 = 0.7198	0.225	–	–
313.15 K, x1 = 0.7768	–	843.06	1210.2
313.15 K, x1 = 0.8249	0.192	–	–
313.15 K, x1 = 0.8969	–	849.21	1222.1
313.15 K, x1 = 0.9096	0.147	–	–
313.15 K, x1 = 0.9601	–	852.46	1230.5
313.15 K, x1 = 0.9686	0.123	–	–
323.15 K, x1 = 0.0529	0.044	–	–
323.15 K, x1 = 0.0547	–	783.66	1114.2
323.15 K, x1 = 0.1021	–	788.33	1119.3
323.15 K, x1 = 0.109	0.0839	–	–
323.15 K, x1 = 0.207	–	797.66	1129.4
323.15 K, x1 = 0.2159	0.163	–	–
323.15 K, x1 = 0.2989	–	804.85	1136.8
323.15 K, x1 = 0.3175	0.215	–	–
323.15 K, x1 = 0.4024	–	812.32	1144.6
323.15 K, x1 = 0.4299	0.248	–	–
323.15 K, x1 = 0.5041	–	818.98	1152.7
323.15 K, x1 = 0.5331	0.273	–	–
323.15 K, x1 = 0.6074	–	825.2	1160.6
323.15 K, x1 = 0.6229	0.274	–	–
323.15 K, x1 = 0.6965	–	830.27	1167.7
323.15 K, x1 = 0.7198	0.255	–	–
323.15 K, x1 = 0.8063	–	836.02	1177.1
323.15 K, x1 = 0.8249	0.22	–	–
323.15 K, x1 = 0.8887	–	840.5	1184.7
323.15 K, x1 = 0.9096	0.169	–	–
323.15 K, x1 = 0.9618	–	844.41	1192.6
323.15 K, x1 = 0.9686	0.141	–	–
